Results reported in PubChem BioAssay (NCI).
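A five-concentration, 48-hour dose response in 96-well plates underlies each endpoint, interpolated linearly between surrounding concentrations. At the TGI there is no net growth.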

Key:
Assay in all cases: NCI tumour cell line growth inhibition, 48 h
A549 NSCLC = tested on: A549 NSCLC
ACHN renal = tested on: ACHN renal
BT-549 breast = tested on: BT-549 breast
COLO 205 colon = tested on: COLO 205 colon
HS 578T breast = tested on: HS 578T breast
IGROV1 ovarian = tested on: IGROV1 ovarian
LOX IMVI melanoma = tested on: LOX IMVI melanoma
M14 melanoma = tested on: M14 melanoma
NCI-H23 lung = tested on: NCI-H23 lung
NCI/ADR-RES ovarian = tested on: NCI/ADR-RES ovarian
OVCAR-4 ovarian = tested on: OVCAR-4 ovarian
OVCAR-5 ovarian = tested on: OVCAR-5 ovarian
OVCAR-8 ovarian = tested on: OVCAR-8 ovarian
SF-539 CNS = tested on: SF-539 CNS
SK-OV-3 ovarian = tested on: SK-OV-3 ovarian
SNB-19 CNS = tested on: SNB-19 CNS
U251 CNS = tested on: U251 CNS
UACC-257 melanoma = tested on: UACC-257 melanoma
UO-31 renal = tested on: UO-31 renal
A498 renal = tested on: A498 renal

SMILES | TGI (A549 NSCLC) | TGI (ACHN renal) | TGI (BT-549 breast) | TGI (COLO 205 colon) | TGI (HS 578T breast) | TGI (IGROV1 ovarian) | TGI (LOX IMVI melanoma) | TGI (M14 melanoma) | TGI (NCI-H23 lung) | TGI (NCI/ADR-RES ovarian) | TGI (OVCAR-4 ovarian) | TGI (OVCAR-5 ovarian) | TGI (OVCAR-8 ovarian) | TGI (SF-539 CNS) | TGI (SK-OV-3 ovarian) | TGI (SNB-19 CNS) | TGI (U251 CNS) | TGI (UACC-257 melanoma) | TGI (UO-31 renal) | TGI (A498 renal)
CC(C)C1CC[C@H](C)C[C@@H]1OC(=O)C(C(=O)O[C@H]1C[C@@H](C)CCC1C(C)C)C(O)[C@@H]1OC(C)(C)O[C@H]1C1COC(C)(C)O1 (stereo partly drawn) | 66.6 µM | 32 µM | 34.2 µM | 28.2 µM | 36.5 µM | 30.4 µM | 35.5 µM | 37.8 µM | 31.9 µM | 45.4 µM | 50.9 µM | 31.9 µM | 47.2 µM | 49.5 µM | 65.4 µM | 29.8 µM | 27.2 µM | 78.2 µM | 31.3 µM | 
CCSc1nc(N)c2c(-c3ccccc3)c3c(nc2n1)CCC3 | > 100 µM | > 100 µM | > 100 µM | > 100 µM | > 100 µM | > 100 µM | > 100 µM | > 100 µM | > 100 µM | > 100 µM | > 100 µM | > 100 µM | > 100 µM | 53 µM | > 100 µM | > 100 µM | > 100 µM | > 100 µM | 9.02 µM | 
CCN1CCC(O)(c2ccc(Oc3ccc(C)cc3)cc2)C(C(=O)c2ccc(Oc3ccc(C)cc3)cc2)C1 (stereo not drawn) | 26.8 µM | 25.9 µM | 22.4 µM | 26.1 µM | 48.3 µM | 25 µM | 13.5 µM | 30.6 µM | 30.2 µM | 28.2 µM | 17.3 µM | 32.1 µM | 28.2 µM |  | 29.7 µM | 27.2 µM | 23.7 µM | 26.7 µM | 20.6 µM | 6.39 µM
CC(=O)/C=C(\O)c1[nH]c(C(=O)O)cc1C1CCN(Cc2ccccc2)C1=O (stereo not drawn) | 81.4 µM | > 100 µM | 58.1 µM | 42.9 µM | > 100 µM | 61.5 µM |  | 29.6 µM | 35.3 µM | 28.9 µM | > 100 µM | 80.2 µM | 36.4 µM |  | 57.7 µM | 83.5 µM | > 100 µM | 53.7 µM | 38.5 µM | > 100 µM
c1ccc(N=C2SC3=NCCN3C2=Nc2ccccc2)cc1 |  |  | 34.7 µM | 33.3 µM | > 100 µM |  |  | 37.8 µM | 52.9 µM | > 100 µM |  | 34.9 µM | > 100 µM |  | > 100 µM | 32.5 µM | 33.5 µM |  | 26.4 µM | 36.4 µM
Oc1cccc(-c2cn3cc(C(F)(F)F)ccc3n2)c1 | > 100 µM | > 100 µM | > 100 µM | > 100 µM | > 100 µM | > 100 µM | > 100 µM | > 100 µM | > 100 µM | 78.1 µM | > 100 µM | > 100 µM | > 100 µM |  | > 100 µM | > 100 µM | > 100 µM | 65.3 µM | > 100 µM | > 100 µM
c1ccc2nc(CCC3CCCCN3)ccc2c1 (stereo not drawn) | > 100 µM | > 100 µM | > 100 µM | 31.5 µM | > 100 µM | > 100 µM | > 100 µM | > 100 µM | > 100 µM | > 100 µM | > 100 µM | > 100 µM | > 100 µM |  | > 100 µM | > 100 µM | > 100 µM | > 100 µM | > 100 µM | > 100 µM
Cc1nc2ccccc2n1Cc1nnc(N)o1 | > 100 µM | > 100 µM | > 100 µM | > 100 µM | > 100 µM | > 100 µM | > 100 µM | > 100 µM | > 100 µM | > 100 µM |  | > 100 µM | > 100 µM | > 100 µM | > 100 µM | > 100 µM | > 100 µM | > 100 µM | > 100 µM | > 100 µM
NC1CC(=O)c2sccc21 (stereo not drawn) | > 100 µM | > 100 µM | > 100 µM | > 100 µM | > 100 µM | > 100 µM |  | > 100 µM | > 100 µM | > 100 µM | > 100 µM | > 100 µM | > 100 µM | > 100 µM | > 100 µM | > 100 µM | > 100 µM | > 100 µM | > 100 µM | > 100 µM
O=C1c2ccccc2-c2nc(/C=C/c3ccccc3)cc3c2c1nc1ccccc13 | > 100 µM | > 100 µM | > 100 µM | 69.8 µM | 62.6 µM | > 100 µM |  | > 100 µM | 28.9 µM | > 100 µM | > 100 µM | > 100 µM | > 100 µM | > 100 µM | > 100 µM | > 100 µM | 57 µM | > 100 µM | > 100 µM | > 100 µM
